According to patent publication US5187156A, “Peptide compounds, processes for preparation thereof and pharmaceutical composition comprising the same” (priority 1988, dated 1993):
Non-standard residues stand in square brackets, D forms with d. Residues, ends and D or L forms follow the SMILES beside them. *: point of attachment. Boc = CC(C)(C)OC(=O)*; OBn = c1ccc(CO*)cc1; For = O=C*

molecular target: T1, Substance P receptor (Cavia porcellus, UniProt P30547); assay: 3H-Substance P receptor binding to guinea pig crude lung membrane preparation; details: test compound 1 μg/ml; 3H-substance P 1 nM; guinea pig crude lung membrane fraction; 4° C., 30 minutes
T1 construct: from tissue; host or cells: guinea pig (male Hartley) trachea and lung, crude membrane fraction
T1 sequence (P30547 whole entry): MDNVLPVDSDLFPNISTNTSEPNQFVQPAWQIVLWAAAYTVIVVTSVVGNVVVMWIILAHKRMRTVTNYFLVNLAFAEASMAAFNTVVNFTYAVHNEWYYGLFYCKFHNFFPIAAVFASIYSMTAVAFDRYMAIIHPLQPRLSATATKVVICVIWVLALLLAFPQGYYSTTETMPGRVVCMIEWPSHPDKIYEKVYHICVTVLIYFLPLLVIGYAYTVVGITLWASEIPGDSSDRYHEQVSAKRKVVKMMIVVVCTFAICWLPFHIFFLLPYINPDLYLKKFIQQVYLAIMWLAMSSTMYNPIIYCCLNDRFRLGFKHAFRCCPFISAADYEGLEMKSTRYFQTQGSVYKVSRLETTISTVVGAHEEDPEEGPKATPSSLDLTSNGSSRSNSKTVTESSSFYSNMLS
Experimental: 1. ^3 H-Substance P receptor binding
(a) Crude lung membrane preparation
Male Hartley strain guinea pigs were sacrificed by decapitation. The trachea and lung were removed and homogenized in buffer (0.25M sucrose, 50 mM Tris-HCl pH 7.5, 0.1 mM EDTA) by using Polytoron (Kinematica). The homogenate was centrifuged (1000 xg, 10 min) to remove tissue clumps and the supernatant was centrifuges (14000 xg 20 min) to yield pellets. The pellets were resuspended in buffer (5 mM Tris-HCl pH 7.5), homogenized with a teflon homogenizer and centrifuged (14000 xg, 20 min) to yield pellets which were referred to as crude membrane fractions. The obtained pellets were stored at -70° C. until use.
(b) ^3 H-Substance P binding to preparative membrane
Frozen crude membrane fractions were thawed and resuspended in Medium 1 (50 mM Tris-HCl pH 7.5, 5 mM MnCl2, 0.02% BSA, 2 μg/ml chymostatin, 4 μg/ml leupeptin, 40 μg/ml bacitracin.) ^3 H-substance P (1 nM) was incubated with 100 μl of the membrane preparation in Medium 1 at 4° C. for 30 minutes in a final volume of 500 µl. At the end of the incubation period, reaction mixture was quickly filtered over a Whatman GF/B glass filter (pretreated with 0.1% polyethylene imine for 3 hours prior to use) under aspiration. The filters were then washed four times with 5 ml of the buffer (50 mM Tris-HCl, pH 7.5). The radioactivity was counted in 5 ml of Aquazol-2 in Packerd scintillation counter (Packerd TRI-CARB 4530).

In order of rising inhibition at 1 µg/mL:
1. CC(C)(C)OC(=O)N[C@@H](CC(N)=O)C(=O)N[C@H](Cc1cn(C=O)c2ccccc12)C(=O)N[C@@H](Cc1ccccc1)C(=O)OCc1ccccc1 [Test Compound (d), Boc-Asn-D-Trp(CHO)-Phe-OBzl] (Boc-Asn-[dW](For)-Phe-OBn)  99%
2. CC(C)(C)OC(=O)N[C@@H](CO)C(=O)N[C@H](Cc1cn(C=O)c2ccccc12)C(=O)N[C@@H](Cc1ccccc1)C(=O)OCc1ccccc1 [Test Compound (e), Boc-Ser-D-Trp(CHO)-Phe-OBzl] (Boc-Ser-[dW](For)-Phe-OBn)  99%
3. CC(C)(C)OC(=O)N[C@@H](CCC(N)=O)C(=O)N[C@H](Cc1cn(C=O)c2ccccc12)C(=O)N[C@@H](Cc1ccccc1)C(=O)OCc1ccccc1 [Test Compound (a), Boc-Gln-D-Trp(CHO)-Phe-OBzl] (Boc-Gln-[dW](For)-Phe-OBn)  100%
4. CC(=O)N[C@@H](CCC(N)=O)C(=O)N[C@H](Cc1cn(C=O)c2ccccc12)C(=O)N[C@@H](Cc1ccccc1)C(=O)OCc1ccccc1 [Test Compound (b), Ac-Gln-D-Trp(CHO)-Phe-OBzl] (Ac-Gln-[dW](For)-Phe-OBn)  100%
5. CN(C)C(=O)CC[C@H](NC(=O)OC(C)(C)C)C(=O)N[C@H](Cc1cn(C=O)c2ccccc12)C(=O)N[C@@H](Cc1ccccc1)C(=O)OCc1ccccc1 [Test Compound (f), Boc-Glu(NMe2)-D-Trp(CHO)-Phe-OBzl] (Boc-Glu(NMe2)-[dW](For)-Phe-OBn)  100%
6. C[C@@H](O)[C@H](NC(=O)OC(C)(C)C)C(=O)N[C@H](Cc1cn(C=O)c2ccccc12)C(=O)N[C@@H](Cc1ccccc1)C(=O)OCc1ccccc1 [Test Compound (g), Boc-Thr-D-Trp(CHO)-Phe-OBzl] (Boc-Thr-[dW](For)-Phe-OBn)  100%
7. CN(Cc1ccccc1)C(=O)[C@H](Cc1ccccc1)NC(=O)[C@@H](Cc1cn(C=O)c2ccccc12)NC(=O)[C@H](CCC(N)=O)NC(=O)OC(C)(C)C [Test Compound (h), Boc-Gln-D-Trp(CHO)-Phe-NMeBzl]  100%
8. C[C@@H](O)[C@H](NC(=O)OC(C)(C)C)C(=O)N[C@H](Cc1cn(C=O)c2ccccc12)C(=O)N[C@@H](Cc1ccccc1)C(=O)N(C)Cc1ccccc1 [Test Compound (i), Boc-Thr-D-Trp(CHO)-Phe-NMeBzl]  100%
9. CN(C)C(=O)CC[C@H](NC(=O)OC(C)(C)C)C(=O)N[C@H](Cc1cn(C=O)c2ccccc12)C(=O)N[C@@H](Cc1ccccc1)C(=O)N(C)Cc1ccccc1 [Test Compound (j), Boc-Glu(NMe2)-D-Trp(CHO)-Phe-NMeBzl]  100%
10. CC(=O)N[C@H](C(=O)N[C@H](Cc1cn(C=O)c2ccccc12)C(=O)N[C@@H](Cc1ccccc1)C(=O)N(C)Cc1ccccc1)[C@@H](C)O [Test Compound (k), Ac-Thr-D-Trp(CHO)-Phe-NMeBzl]  100%
11. CC(=O)N[C@@H](CCC(=O)N(C)C)C(=O)N[C@H](Cc1cn(C=O)c2ccccc12)C(=O)N[C@@H](Cc1ccccc1)C(=O)N(C)Cc1ccccc1 [Test Compound (l), Ac-Glu(NMe2)-D-Trp(CHO)-Phe-NMeBzl]  100%

“Z-Gln-D-Trp(CHO) -Phe-OBzl [Test Compound (c)]” was tested, and the “Inhibition (%)” value was 93%.
